Each structure is given as a SMILES string. Like-named read-outs stand apart in the source and are kept apart here.

In one data set the target is NR2B mutant N616Q (Homo sapiens, UniProt Q05586+Q13224, N616Q). Kind of data set: Channel blocking activity on NMDA receptor mutant NR2B N616Q expressed in eggs. The format is cell-based. The following applies: FIG. 3. An excerpt: (§1) Site-directed mutagenesis was utilized to construct NMDA receptor mutants with amino acid substitutions. The NMDA receptor mutants were expressed in eggs in the same method as shown in Example 1 to investigate for channel blocking activity of AQ444. […] Other relevant amino acid residues on the NMDA receptors are shown in FIG. 4 together with their models.
Sequence of NR2B mutant N616Q (Q13224 27-1484 N616Q, other chains not shown): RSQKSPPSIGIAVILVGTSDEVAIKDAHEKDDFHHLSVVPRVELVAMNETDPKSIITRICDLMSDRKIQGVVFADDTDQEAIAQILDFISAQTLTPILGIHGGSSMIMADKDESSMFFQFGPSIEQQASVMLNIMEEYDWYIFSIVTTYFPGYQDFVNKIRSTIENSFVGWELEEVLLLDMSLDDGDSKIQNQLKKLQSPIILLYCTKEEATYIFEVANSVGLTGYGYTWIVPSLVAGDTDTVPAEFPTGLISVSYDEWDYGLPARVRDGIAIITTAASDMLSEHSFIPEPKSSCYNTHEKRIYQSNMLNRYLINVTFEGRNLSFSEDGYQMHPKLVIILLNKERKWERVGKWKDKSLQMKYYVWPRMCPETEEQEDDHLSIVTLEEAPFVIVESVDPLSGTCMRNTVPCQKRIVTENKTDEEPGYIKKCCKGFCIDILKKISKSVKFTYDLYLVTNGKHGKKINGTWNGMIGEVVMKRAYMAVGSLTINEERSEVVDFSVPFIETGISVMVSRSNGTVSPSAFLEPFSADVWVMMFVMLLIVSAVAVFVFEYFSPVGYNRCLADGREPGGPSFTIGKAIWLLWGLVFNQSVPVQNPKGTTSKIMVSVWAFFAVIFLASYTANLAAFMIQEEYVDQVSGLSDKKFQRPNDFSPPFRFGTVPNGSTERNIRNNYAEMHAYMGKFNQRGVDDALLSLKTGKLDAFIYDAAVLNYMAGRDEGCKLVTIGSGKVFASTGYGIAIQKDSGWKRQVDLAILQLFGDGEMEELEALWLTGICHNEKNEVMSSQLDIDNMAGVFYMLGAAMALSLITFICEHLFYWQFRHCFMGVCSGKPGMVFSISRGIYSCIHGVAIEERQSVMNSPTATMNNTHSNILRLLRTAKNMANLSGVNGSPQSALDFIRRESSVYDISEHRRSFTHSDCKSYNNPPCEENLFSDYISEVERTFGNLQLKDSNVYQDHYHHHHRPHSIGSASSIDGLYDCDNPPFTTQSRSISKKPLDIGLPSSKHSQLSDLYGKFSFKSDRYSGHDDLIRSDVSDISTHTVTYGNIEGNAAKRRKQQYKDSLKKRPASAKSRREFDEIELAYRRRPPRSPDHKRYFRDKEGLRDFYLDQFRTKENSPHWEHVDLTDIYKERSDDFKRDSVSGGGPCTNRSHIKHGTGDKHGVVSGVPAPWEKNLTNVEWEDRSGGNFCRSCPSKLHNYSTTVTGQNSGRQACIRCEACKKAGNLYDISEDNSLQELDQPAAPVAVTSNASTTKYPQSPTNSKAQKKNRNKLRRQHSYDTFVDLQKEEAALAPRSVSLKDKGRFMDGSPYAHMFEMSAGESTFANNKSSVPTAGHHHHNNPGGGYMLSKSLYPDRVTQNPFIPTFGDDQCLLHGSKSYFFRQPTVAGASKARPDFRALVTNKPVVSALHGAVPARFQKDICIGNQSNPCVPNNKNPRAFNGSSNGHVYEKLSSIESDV

The subject of the next data set is NR1 mutant N616R. Description: Channel blocking activity on NMDA receptor mutant NR1 N616R expressed in eggs. The data set is classed as cell-based. The following applies: FIG. 3.
Excerpt: as §1

For a further data set, the target named is NR1/NR2C (Homo sapiens, UniProt Q05586+Q14957). Description: Reactivity with NMDA receptor subtype NR1/NR2C expressed on Xenopus oocytes. The data set is classed as cell-based. The following applies: AQ444 0.1 to 30 μM, FIG. 2. How it is done: (§2) AQ444 was added to the perfusion solution to get a final concentration of 0.1 to 30 μM. […] Further, the intensities in channel blocking activity against the receptors were in the order of NR1/NR2A=NR1/NR2B=NR1/NR2D>>NR1/NR2C.

For a further data set, the target named is NR1/NR2A (Homo sapiens, UniProt Q05586+Q12879). Kind of data set: Channel blocking activity on NMDA receptors (NR1/NR2A) expressed on Xenopus oocytes, two electrode voltage clamp. The following applies: for voltage dependence of channel blocking activity: membrane potential changed from −150 mV to +10 mV.
Sequence of NR1/NR2A (Q12879 23-1464, other chains not shown): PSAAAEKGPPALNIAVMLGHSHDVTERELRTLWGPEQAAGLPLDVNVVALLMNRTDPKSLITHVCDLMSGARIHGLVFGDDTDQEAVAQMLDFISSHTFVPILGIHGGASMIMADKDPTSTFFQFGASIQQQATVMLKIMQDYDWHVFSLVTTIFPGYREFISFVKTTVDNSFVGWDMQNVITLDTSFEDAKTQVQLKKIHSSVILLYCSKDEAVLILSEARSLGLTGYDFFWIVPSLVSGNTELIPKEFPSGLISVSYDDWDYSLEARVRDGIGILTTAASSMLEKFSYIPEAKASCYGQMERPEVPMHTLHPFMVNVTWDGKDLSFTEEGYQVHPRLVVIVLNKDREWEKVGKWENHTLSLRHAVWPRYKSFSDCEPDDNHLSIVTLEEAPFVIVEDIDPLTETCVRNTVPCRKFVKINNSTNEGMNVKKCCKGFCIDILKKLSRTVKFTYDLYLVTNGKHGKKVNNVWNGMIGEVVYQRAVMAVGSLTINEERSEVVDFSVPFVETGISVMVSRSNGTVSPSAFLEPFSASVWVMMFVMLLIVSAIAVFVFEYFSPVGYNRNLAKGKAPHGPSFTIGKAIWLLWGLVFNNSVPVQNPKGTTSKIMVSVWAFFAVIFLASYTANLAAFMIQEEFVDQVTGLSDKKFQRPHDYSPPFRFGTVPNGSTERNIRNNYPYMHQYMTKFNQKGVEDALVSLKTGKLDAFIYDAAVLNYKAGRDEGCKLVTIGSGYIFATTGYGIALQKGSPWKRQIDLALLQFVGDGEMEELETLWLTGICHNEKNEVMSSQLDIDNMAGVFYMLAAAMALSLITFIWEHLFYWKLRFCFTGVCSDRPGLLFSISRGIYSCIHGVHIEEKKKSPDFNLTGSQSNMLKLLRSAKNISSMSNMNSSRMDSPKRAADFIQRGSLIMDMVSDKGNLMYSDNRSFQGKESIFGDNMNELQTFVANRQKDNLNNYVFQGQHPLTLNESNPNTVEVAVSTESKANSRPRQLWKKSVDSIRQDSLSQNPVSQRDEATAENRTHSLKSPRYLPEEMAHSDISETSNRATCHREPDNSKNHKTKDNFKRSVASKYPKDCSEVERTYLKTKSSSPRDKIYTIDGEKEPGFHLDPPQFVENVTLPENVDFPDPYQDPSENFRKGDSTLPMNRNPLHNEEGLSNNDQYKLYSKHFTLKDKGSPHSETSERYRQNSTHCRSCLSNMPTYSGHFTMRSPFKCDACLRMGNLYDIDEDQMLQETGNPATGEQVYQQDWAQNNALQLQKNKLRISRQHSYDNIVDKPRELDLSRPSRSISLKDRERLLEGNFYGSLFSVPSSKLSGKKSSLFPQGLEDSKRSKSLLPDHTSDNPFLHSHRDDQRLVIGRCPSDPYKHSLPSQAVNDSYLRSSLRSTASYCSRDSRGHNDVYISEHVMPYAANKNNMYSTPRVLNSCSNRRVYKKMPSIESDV
The next data set deals with NR1/NR2B (Homo sapiens, UniProt Q05586+Q13224). Description: Reactivity with NMDA receptor subtype NR1/NR2B expressed on Xenopus oocytes. The data set is classed as cell-based. The following applies: AQ444 0.1 to 30 μM, FIG. 2. How it is done:
as §2

For the next data set, the system named is NR1 mutant N616Q. Description: Channel blocking activity on NMDA receptor mutant NR1 N616Q expressed in eggs. The following applies: FIG. 3. The format is cell-based.
Excerpt: as §1

The next data set addresses NR2B mutant N615Q (Homo sapiens, UniProt Q05586+Q13224, N615Q). Description: Channel blocking activity on NMDA receptor mutant NR2B N615Q expressed in eggs. The data set is classed as cell-based. The following applies: FIG. 3.
Excerpt: as §1

Another data set has as its target NR1/NR2D (Homo sapiens, UniProt O15399+Q05586). Description: Reactivity with NMDA receptor subtype NR1/NR2D expressed on Xenopus oocytes. The following applies: AQ444 0.1 to 30 μM, FIG. 2. The data set is classed as cell-based. Here is the method:
as §2

A further data set in a line: Cytotoxicity. The format is cell-based.
Where [1] appears, read: read-out: 50% inhibition concentration (IC50) of channel blocking activity, membrane potential clamp at −70 mV, 10 μM glycine and 10 μM glutamic acid, Xenopus oocytes.

Sequence of NR1/NR2D (O15399 28-1336, other chains not shown): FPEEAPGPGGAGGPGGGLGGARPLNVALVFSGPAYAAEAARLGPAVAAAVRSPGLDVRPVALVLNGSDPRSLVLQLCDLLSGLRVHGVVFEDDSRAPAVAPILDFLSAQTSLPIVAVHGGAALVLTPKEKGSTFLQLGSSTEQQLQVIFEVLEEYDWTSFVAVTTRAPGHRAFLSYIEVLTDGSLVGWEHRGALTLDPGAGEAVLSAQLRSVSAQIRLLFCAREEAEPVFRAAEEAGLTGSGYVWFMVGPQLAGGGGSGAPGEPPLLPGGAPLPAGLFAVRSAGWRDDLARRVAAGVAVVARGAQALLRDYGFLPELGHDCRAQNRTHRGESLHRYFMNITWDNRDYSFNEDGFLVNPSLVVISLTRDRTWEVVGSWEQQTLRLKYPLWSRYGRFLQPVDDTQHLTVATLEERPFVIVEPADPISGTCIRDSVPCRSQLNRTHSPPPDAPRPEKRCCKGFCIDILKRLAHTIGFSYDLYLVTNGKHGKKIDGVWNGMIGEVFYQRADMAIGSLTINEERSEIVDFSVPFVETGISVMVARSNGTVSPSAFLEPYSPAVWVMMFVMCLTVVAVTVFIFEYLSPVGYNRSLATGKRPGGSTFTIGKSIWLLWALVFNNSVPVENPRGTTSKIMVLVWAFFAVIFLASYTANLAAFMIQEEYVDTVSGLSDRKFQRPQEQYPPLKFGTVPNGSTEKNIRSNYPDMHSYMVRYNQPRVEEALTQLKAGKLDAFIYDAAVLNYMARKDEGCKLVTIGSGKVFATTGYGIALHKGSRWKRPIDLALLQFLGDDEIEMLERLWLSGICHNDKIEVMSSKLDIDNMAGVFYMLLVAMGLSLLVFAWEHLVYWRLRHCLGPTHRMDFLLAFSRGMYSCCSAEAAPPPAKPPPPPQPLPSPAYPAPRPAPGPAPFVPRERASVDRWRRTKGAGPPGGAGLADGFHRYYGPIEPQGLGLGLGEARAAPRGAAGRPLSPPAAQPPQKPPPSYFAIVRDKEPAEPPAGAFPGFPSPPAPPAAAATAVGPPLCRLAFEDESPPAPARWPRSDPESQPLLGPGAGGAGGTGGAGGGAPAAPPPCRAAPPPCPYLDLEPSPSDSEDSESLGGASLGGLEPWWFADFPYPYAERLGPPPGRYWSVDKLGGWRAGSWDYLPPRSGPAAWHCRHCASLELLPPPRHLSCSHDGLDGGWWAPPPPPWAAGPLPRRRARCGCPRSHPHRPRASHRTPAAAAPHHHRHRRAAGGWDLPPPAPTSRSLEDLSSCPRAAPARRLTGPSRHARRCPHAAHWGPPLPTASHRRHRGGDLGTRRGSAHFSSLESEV
Method for NR1/NR2A: The cDNA clones for NMDA receptors were used to prepare the cRNAs, which were then injected in Xenopus oocytes. The cRNAs of subtype 1 (NR1) and subtype 2 (NR2A) of NMDA receptors were injected in a Xenopus oocyte in a ratio of 1:5 (0.1 ng of NR1 and 0.5 ng of NR2A) and incubated in an incubator for several days to express the NMDA receptors on the membrane of the developed egg. The expression was confirmed by a two electrode voltage clamp system. A glass capillary was filled with a 3M potassium chloride solution for use as an electrode, which was then inserted into an egg placed in a perfusion solution to measure a change in membrane potential. The perfusion solution used comprised 100 mM sodium chloride, 2 mM potassium chloride, 1.8 mM barium chloride and 10 mM HEPES, pH 7.5.

With `NCCCCNCCCCNCCCCNC(=O)c1ccc2c(c1)C(=O)c1ccccc1C2=O` [AQ444, Anthraquinone Homospermine], the “channel blocking activity on mutant” value on NR2B mutant N616Q, with NR1 mutant N616R, in the data set with NR1 mutant N616Q and on NR2B mutant N615Q was “significantly decreased channel blocking activity” throughout. The “order of intensity in channel blocking activity among subtypes” value is “NR1/NR2A=NR1/NR2B=NR1/NR2D>>NR1/NR2C” on NR1/NR2C; “NR1/NR2A=NR1/NR2B=NR1/NR2D>>NR1/NR2C” at NR1/NR2A (NR1/NR2A, AQ444 0.1 to 30 μM, FIG. 2); “NR1/NR2A=NR1/NR2B=NR1/NR2D>>NR1/NR2C” at NR1/NR2B; “NR1/NR2A=NR1/NR2B=NR1/NR2D>>NR1/NR2C” on NR1/NR2D. The same compound displayed an IC50 at NR1/NR2A of 0.47 µM. Also, the “voltage dependence of channel blocking activity” value (“voltage dependence” for short) on NR1/NR2A was “showed voltage dependence”.

In turn, `CC12CC3CC(C)(C1)CC(N)(C3)C2` [memantine, reference compound] returned an IC50 in “Cytotoxicity” of 147 µM.

Consider `NCCCCNCCCCNCCCCNC(=O)N1c2ccccc2C=Cc2ccccc21` [DBA444, Dibenzoazepine Homospermine], for which, on NR1/NR2A, the “voltage dependence” value is given as “in a voltage-dependent manner”. Moreover, the IC50 at NR1/NR2A (setting [1]) amounted to 0.24 µM; in the data set “Cytotoxicity”, 132 µM.

Compound `NCCCNCCCCNCCCNC(=O)n1c2ccccc2c2ccccc21` [carbazole spermine, Carbazole Spermine] showed an IC50 against NR1/NR2A of 15 µM.

Regarding `NCCCCNCCCCNCCCCNC(=O)N1c2ccccc2CCc2ccccc21` [DDBA444, Dihydrodibenzoazepine Homospermine], on NR1/NR2A, the “voltage dependence” value is recorded as “in a voltage-dependent manner”. Further, the IC50 at NR1/NR2A (setting [1]) is 0.072 µM; in “Cytotoxicity” it was 133 µM.

Values taken from patent US8987253B2, “Compound having activity of blocking NMDA receptor channel, and pharmaceutical agent using the same” (National University Corporation Chiba University, priority 2006, dated 2015).
